From patent US8748088B2, “Methods of monitoring treatment effectiveness in HIV-infected patients receiveing intensified HAART regimens by measuring episomal 2-LTR circles” (University of Massachusetts, priority 2009, dated 2014)

Experiments:
HIV-1 2-LTR circles = assay: Real-time PCR quantification of episomal HIV-1 DNA (2-LTR circles) in PBMCs of HAART-suppressed patients intensified with raltegravir; assay type: in vivo
Excerpt: (§1) A total of 69 patients with undetectable plasma viremia (viral load <50 HIV-1 RNA copies/ml) for at least one year were included in this study. All patients were on a suppressive HAART regimen that included 2 nucleoside reverse transcriptase inhibitors, and either a protease inhibitor or a non-nucleoside reverse transcriptase inhibitor. A total of 45 patients were randomized to intensify their HAART with the integrase inhibitor raltegravir for 12 weeks, and 24 patients were included as a control arm. One patient in the control group was lost to follow-up before study initiation. […]
The samples included in this study were drawn from HIV-1 infected patients who were longitudinally monitored for up to 12 weeks. […]
In the formation of 2-LTR circles, U3 and U5 sequences within the 5′ and 3′ LTRs ligate to form a unique U3-U5 circle junction that is not represented in other forms of viral cDNA (FIG. 1A). Therefore, 2-LTR circles were specifically measured by real-time PCR with primers flanking the 2-LTR circle junction. […]
Real-time PCR-based quantification of HIV-1 2-LTR circles was performed as follows. […] A single-step, real-time PCR was used to quantify 2-LTR circles in a 50 ul PCR reaction mix containing 25 ul of TaqMan® Universal PCR Master Mix (Applied Biosystems), 20 ul of extrachromosomal HIV-1 DNA and primers and probe that span the 2-LTR circle junction. […]

integrated HIV-1 DNA = assay: Two-step Alu-LTR real-time PCR quantification of integrated HIV-1 DNA in PBMCs of intensified patients; assay type: in vivo; conditions: for levels of integrated HIV-1 DNA: throughout the 12 weeks of intensification, p=0.768 signed rank test
Excerpt: A total of 69 patients with undetectable plasma viremia (viral load <50 HIV-1 RNA copies/ml) for at least one year were included in this study. All patients were on a suppressive HAART regimen that included 2 nucleoside reverse transcriptase inhibitors, and either a protease inhibitor or a non-nucleoside reverse transcriptase inhibitor. A total of 45 patients were randomized to intensify their HAART with the integrase inhibitor raltegravir for 12 weeks, and 24 patients were included as a control arm. One patient in the control group was lost to follow-up before study initiation. A second patient also in this group, who had two consecutive viral load measurements at weeks 12 and 24 (90 and 63 HIV-1 copies/mL respectively), was excluded for further analysis.
HIV-1 DNA purification was isolated as previously described (Hunt et al., J Infect Dis 187, 1534-1543 (2003)) with some modifications. […]
Real-time PCR-based quantification of integrated HIV-1 DNA was performed as follows. […] A two-step real-time PCR was used to quantitate integrated HIV-1 DNA using Alu-LTR primers as has previously been described (Brussel and Sonigo, J Virol 77, 10119-10124 (2003)). […] The fluorescence taqman probe was 5′[…] […]
Amplification and calculation of copy number was determined as for 2-LTR DNA. […] Integrated proviral DNA was measured using LTR-Alu primers. […]
(§2) Statistical analysis for the above-described experiments was performed as follows. […] In each group longitudinal changes of total and integrated HIV-1 and immune activation parameters were assessed through the signed rank test (paired test) comparing weeks 0 and 12, or weeks 0 and 24 respectively. Differences in proportions between groups were analyzed through the Pearson's chi square, considering the continuity correction or the Fisher's exact test, as appropriate. Within the intensified arm, differences in 2-LTR circles at weeks 2 and 4 compared to baseline were analyzed using Peto-Prentice-Wilcoxon test. […]

total HIV-1 DNA = assay: Real-time PCR quantification of total HIV-1 DNA in PBMCs of intensified patients; assay type: in vivo; conditions: throughout the 12 weeks of intensification, p=0.342 signed rank test
Excerpt: as §1
Total viral DNA forms (comprising unintegrated and integrated viral cDNA) were assayed using internal LTR primers (FIG. 2). […] Real-time PCR-based quantification of total HIV-1 DNA was performed as follows. […] A single-step real-time PCR was used to quantify total HIV-1 DNA in a 50 ul PCR reaction mix containing 25 ul of TaqMan® Universal PCR Master Mix (Applied Biosystems), 20 ul of chromosomal HIV-1 DNA and primers and probe that anneal in the 5′ and 3′ end of the R and U5 region of the LTR respectively, as has previously been described (Brussel and Sonigo, J Virol 77, 10119-10124 (2003)) using a forward primer; 5′ GG CTA ACT AGG GAA CCC ACT G 3′ (SEQ ID NO:4) and a reverse primer; 5′ GCTAGAGATTTTCCACACTGACTAA 3′ (SEQ ID NO:5). […] Amplification and calculation of copy number was determined as for 2-LTR DNA. […]

[1] = test system: memory CD4+ and activated CD8+ T cells; assay: Flow cytometry analysis of lymphocyte subsets and immune activation in fresh blood; assay type: in vivo, HIV-1 infected patients
Protocol: Analysis of lymphocyte subsets and immune activation was performed as follows. A total of 52 patients, 34 in the intensification group and 18 patients in the control group, had fresh blood samples available for flow cytometry analysis through the study period. Different combinations of antibodies were used to characterize different lymphocyte subsets: combination 1 was designed to evaluate naïve/memory subsets and contained CD45RA-FITC, CD31-PE, CD38-PerCP, CD3-APC-Cy7, CD4-APC and CD8-PE-Cy7; combination 2 was designed to evaluate the activation of CD8 T cells and contained HLA-DR-FITC, PD-1-PE, CD38-PerCP, CD45RO-APC, CD3-APC-Cy7 and CD8-PE-Cy7. Controls with combinations of CD3-APC-Cy7, CD4-APC and CD8-PE-Cy7 antibodies were performed for all samples. All antibodies were obtained from Becton Dickinson. Briefly, 20 ul of fresh whole blood was incubated with antibodies for 15 min at room temperature with the different antibody combinations in V-bottom 96-well plates. Red cells were lysed using the BD FACs lysing solution (Becton Dickinson), washed once with PBS and resuspended in PBS containing 1% formaldehyde. Acquisition of flow cytometry data was performed on an LSRII flow cytometer (Becton Dickinson) coupled with a HTS loader. At least 30,000 lymphocytes were collected for each sample. Analyses were performed with FlowJo software (Tree Star Inc.).
as §2

[2] = raltegravir-intensified group as a whole, throughout the study period (weeks 0-24)

Cc1nnc(C(=O)NC(C)(C)c2nc(C(=O)NCc3ccc(F)cc3)c(O)c(=O)n2C)o1 [raltegravir]
patients with detectable 2-LTR circles (active replication revealed) (HIV-1 2-LTR circles; HAART intensified with raltegravir for 12 weeks, n=45, any time point during the study, 13/45, control 0/22, p=0.003): 29% | change in 2-LTR circles compared to baseline (HIV-1 2-LTR circles; intensification group, weeks 2 and 4 vs baseline (p=0.036 and p=0.023), subsequent decrease afterwards): significant and transient increase in 2-LTR circles | patients from whom integrated HIV-1 DNA was amplified (integrated HIV-1 DNA; intensified patients 39/45, any time point after initiation of the study): 87% | levels of integrated HIV-1 DNA (integrated HIV-1 DNA): remained stable | levels of integrated HIV-1 DNA (integrated HIV-1 DNA; listed as Raltegravir): did not cause significant fluctuations | levels of total HIV-1 DNA (total HIV-1 DNA): remained stable | levels of total HIV-1 DNA (total HIV-1 DNA; listed as Raltegravir): did not cause significant fluctuations | immune activation ([1]; patients in which raltegravir impacted active replication (2-LTR+ subgroup, n=13)): normalization of immune activation | activated CD8+ T cells [1, 2]: no major changes | memory CD4+ T cells (CD4+CD45RA-) [1, 2]: no major changes
